PMC8494682 (Applied Microbiology and Biotechnology, 2021)
Read-outs that look alike come from different tables or passages of the source.

Experiments:
[1] = biological target: T1, pantothenate kinase (PanK, Cab1) (Saccharomyces cerevisiae, UniProt Q04430); assay: radiometric PanK assay with D-[[…]-14C]pantothenate, partially purified enzyme; assay type: biochemical
T1 construct: wild-type Cab1 expressed from pSBS5 in yeast strain JS91.14-24, partially purified on DEAE sepharose
T1 sequence (Q04430 1-367): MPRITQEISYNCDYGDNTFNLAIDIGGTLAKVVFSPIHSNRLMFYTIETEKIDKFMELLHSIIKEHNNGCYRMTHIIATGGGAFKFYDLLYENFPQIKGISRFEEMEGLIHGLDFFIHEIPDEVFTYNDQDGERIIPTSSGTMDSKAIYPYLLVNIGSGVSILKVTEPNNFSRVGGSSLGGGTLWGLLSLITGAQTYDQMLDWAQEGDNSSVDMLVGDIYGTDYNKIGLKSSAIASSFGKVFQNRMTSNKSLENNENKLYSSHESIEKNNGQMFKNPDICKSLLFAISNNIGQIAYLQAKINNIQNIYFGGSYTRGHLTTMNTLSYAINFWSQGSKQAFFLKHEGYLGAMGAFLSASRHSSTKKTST

[2] = biological target: T2, pantothenate kinase PanK3 (murine) (Mus musculus, UniProt Q8R2W9); assay: as above; assay type: biochemical
T2 construct: murine wild-type PanK3 expressed from pJO73 in yeast strain JS91.14-24, partially purified on DEAE sepharose
T2 sequence (Q8R2W9 1-370): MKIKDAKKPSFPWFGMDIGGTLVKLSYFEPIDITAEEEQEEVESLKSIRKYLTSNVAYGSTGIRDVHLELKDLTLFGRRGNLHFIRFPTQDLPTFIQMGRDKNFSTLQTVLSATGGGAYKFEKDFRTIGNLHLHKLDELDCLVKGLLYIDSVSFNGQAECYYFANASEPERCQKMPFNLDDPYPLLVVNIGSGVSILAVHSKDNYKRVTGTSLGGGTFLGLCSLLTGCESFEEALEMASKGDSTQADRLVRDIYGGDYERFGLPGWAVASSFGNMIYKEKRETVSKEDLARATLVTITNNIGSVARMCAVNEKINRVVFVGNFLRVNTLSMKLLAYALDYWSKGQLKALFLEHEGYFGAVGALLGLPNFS

IC50 ([1]; read-out: IC50) [µM] | Structure (SMILES) | IC50 [1] [µM] | IC50 [2] [µM]
– | CC(C)(COP(=O)(O)OP(=O)(O)OC[C@H]1O[C@@H](n2cnc3c(N)ncnc32)[C@H](O)[C@@H]1OP(=O)(O)O)[C@@H](O)C(=O)NCCC(=O)NCCSC(=O)CC(=O)O [malonyl-CoA] | 812 | –
283 | CC(C)(COP(=O)(O)OP(=O)(O)OC[C@H]1O[C@@H](n2cnc3c(N)ncnc32)[C@H](O)[C@@H]1OP(=O)(O)O)[C@@H](O)C(=O)NCCC(=O)NCCS [Coenzyme A] | – | –
891 | CCCCCCCCCCCCCCCC(=O)SCCNC(=O)CCNC(=O)[C@H](O)C(C)(C)COP(=O)(O)OP(=O)(O)OC[C@H]1O[C@@H](n2cnc3c(N)ncnc32)[C@H](O)[C@@H]1OP(=O)(O)O [palmitoyl-CoA] | – | –
– | CC(=O)SCCNC(=O)CCNC(=O)[C@H](O)C(C)(C)COP(=O)(O)OP(=O)(O)OC[C@H]1O[C@@H](n2cnc3c(N)ncnc32)[C@H](O)[C@@H]1OP(=O)(O)O [acetyl-CoA] | 36 | 1
